Assay results reported in patent US4303785A, “Antitumor anthracycline antibiotics” (priority 1978, dated 1981).
≈ marks a conversion by molar mass, not a printed value. Like-named read-outs stand apart in the source and are kept apart here.

What was measured:
L1210 leukemia cells = test: Growth inhibitory effect on L1210 cells in culture (Table 4); assay type: cell-based; details: for inhibition at 0.1 µg/mL / inhibition at 0.5 µg/mL: Mus musculus, read-out: Inhibition Rate (growth); for inhibition at 0.1 µg/mL: L1210, 0.1 μg./ml.; for inhibition at 0.5 µg/mL: L1210, 0.5 μg./ml.
Description: For example, L1210 cells (5×10^4 cells/ml.) were inoculated in RPMI 1640 medium (Roswell Park Memorial Institute 1640) containing 20% calf serum and cultivated at 37° C. in the presence of 0.1 and 0.5 μg./ml. of the test compounds in a CO2 incubator.

L1210 cells = test: Inhibition of 14C-uridine and 14C-thymidine incorporation (nucleic acid synthesis) in L1210 cells in culture (Table 5); assay type: cell-based; details: 60 min. at 37° C.; for IC50: Mus musculus, L1210, 1 h
Description: The effect of the tetrahydropyranyl ether derivatives of formula I' on nucleic acid synthesis was examined as follows: […]
1×10^5 cells/ml. of L1210 cells were suspended in RPMI medium containing 10% calf serum, pre-cultivated at 37° C. for 1 to 2 hours in a CO2 incubator and then the test compounds were added to the medium at various concentrations. After 15 min. of incubation, ^14 C-uridine (0.05 μCi/ml.) or ^14 C-thymidine (0.05 μCi/ml.) was added and incubated at 37° C. for 60 min. Trichloroacetic acid (TCA) (10%) was added to the incubation medium to stop the reaction and precipitate the acid-insoluble materials, and then the precipitate was washed three times with 5 to 10% […]. The radioactivity was measured and expressed as 50% inhibition concentration of incorporation.

L1210 leukemia = test: Antitumor activity in BDF1 mice inoculated with L1210 leukemia cells (Table 6); assay type: in vivo; details: once daily for 10 days
Description: As an example, BDF1 mice were inoculated intraperitoneally with 1×10^6 cells/mouse of L1210 leukemia cells.

[1] = tested on: NADPH-cytochrome P450 reductase; test: Stability on rat hepatic NADPH-cytochrome P450 reductase: 7-deoxyaglycone formed (Table 7); assay type: in vitro ADME; details: 25° C., 25 min., nitrogen; substrate 0.1 mM, NADPH 0.2 mM, enzyme 4.6 μg./ml, pH 8.0
Description: C. The marked antitumor effects seen from A and B above were confirmed by the stability of the test compounds on the inactivation by hepatic NADPH-cytochrome P450 reductase. Specifically, NADPH-cytochrome P450 reductase purified from rat liver homogenate was incubated with the tetrahydropyranyl ether derivatives of formula I' at 25° C. for 25 min. in nitrogen gas phase, and the incubation product formed, 7-deoxyaglycone, was determined as shown in Table 7.

Escherichia coli NIHJ = test: Minimum inhibitory concentration, broth dilution method (Table 3); assay type: cell-based
Description: (§1) To illustrate such activity, minimum inhibitory concentrations (as determined by the broth dilution method) of representative compounds are shown in Table 3.

Bacillus megaterium APF = test: as above; assay type: cell-based
Description: as §1

Staph. aureus Smith = test: as above; assay type: cell-based
Description: as §1

[2] = tested on: Mycobacterium smegmatis ATCC 607; test: as above; assay type: cell-based; details: for MIC: Mycolicibacterium smegmatis, ATCC607
Description: as §1

Candida albicans = test: as above; assay type: cell-based
Description: as §1

[3] = tested on: Pseudomonas aeruginosa A3; test: as above; assay type: cell-based; details: for MIC: Pseudomonas aeruginosa, A3, Pseudomonas aeruginosa A3
Description: as §1

[4] = tested on: Bacillus cereus ATCC 10702; test: as above; assay type: cell-based; details: for MIC: ATCC10702
Description: as §1

[5] = tested on: Micrococcus flavus FDA 16; test: as above; assay type: cell-based; details: for MIC: Micrococcus flavus, FDA16, Micrococcus flavus FDA 16
Description: as §1

Staph. aureus FDA 209P = test: as above; assay type: cell-based; details: for MIC: Staphylococcus aureus, FDA209P
Description: as §1

[6] = tested on: Bacillus subtillis NRRLB-558; test: as above; assay type: cell-based; details: for MIC: Bacillus, NRRLB558, Bacillus subtillis NRRLB-558
Description: as §1

Sarcina lutea PCI 1001 = test: as above; assay type: cell-based; details: for MIC: Micrococcus luteus, PCI1001
Description: as §1

[7] = tested on: Corynebacterium bovis 1810; test: as above; assay type: cell-based
Description: as §1

[8] = thymidine, read-out: 50% Inhibition Concentration of 14C-Thymidine Incorporation
[9] = uridine, read-out: 50% Inhibition Concentration of 14C-Uridine Incorporation

Compound	inhibition at 0.1 µg/mL (L1210 leukemia cells)	inhibition at 0.5 µg/mL (L1210 leukemia cells)	IC50 (L1210 cells; [8])	IC50 (L1210 cells; [9])	Antitumor Activity (T/C, prolongation rate of survival day) (L1210 leukemia; 0.15 mg./kg./day i.p.)	Antitumor Activity (T/C, prolongation rate of survival day) (L1210 leukemia; 0.3 mg./kg./day i.p.)	Antitumor Activity (T/C, prolongation rate of survival day) (L1210 leukemia; 0.6 mg./kg./day i.p.)	Antitumor Activity (T/C, prolongation rate of survival day) (L1210 leukemia; 1.25 mg./kg./day i.p.)	Antitumor Activity (T/C, prolongation rate of survival day) (L1210 leukemia; 2.5 mg./kg./day i.p.)	Antitumor Activity (T/C, prolongation rate of survival day) (L1210 leukemia; 5 mg./kg./day i.p.)	Product (7-Deoxyaglycone) [1]	MIC (Escherichia coli NIHJ)	MIC [2]	MIC (Candida albicans)	MIC [3]	MIC [4]	MIC [5]	MIC (Staph. aureus FDA 209P)	MIC [6]	MIC (Sarcina lutea PCI 1001)	also measured
COc1cccc2c1C(=O)c1c(O)c3c(c(O)c1C2=O)C[C@@](O)(C(=O)COC1CCCCO1)C[C@@H]3O[C@H]1C[C@H](N)[C@H](OC2CCCCO2)[C@H](C)O1 (single isomer, unassigned; isomer a) [4',14-di-O-PAa, 4',14-bis(O-tetrahydropyranyl)adriamycin (isomer a)]	37.5%	80.8%	0.55 µg/mL (≈ 0.773 µM)	0.23 µg/mL (≈ 0.323 µM)	96%	103%	96%	109%	115%	154%	13.1 nmoles/tube	–	–	–	–	–	–	–	–	–	–
COc1cccc2c1C(=O)c1c(O)c3c(c(O)c1C2=O)C[C@@](O)(C(=O)CO)C[C@@H]3O[C@H]1C[C@H](N)[C@H](OC2CCCCO2)[C@H](C)O1 (single isomer, unassigned; isomer a) [4'-O-PAa, 4'-O-tetrahydropyranyl adriamycin (isomer a)]	65.9%	81.1%	0.37 µg/mL (≈ 0.59 µM)	0.2 µg/mL (≈ 0.319 µM)	127%	120%	187%	180%	173%	–	–	> 100 µg/mL	100 µg/mL (≈ 159 µM)	> 100 µg/mL	> 100 µg/mL	6.25 µg/mL (≈ 9.96 µM)	3.12 µg/mL (≈ 4.97 µM)	6.25 µg/mL (≈ 9.96 µM)	3.12 µg/mL (≈ 4.97 µM)	0.78 µg/mL (≈ 1.24 µM)	MIC (Bacillus megaterium APF; Priestia megaterium): 3.12 µg/mL (≈ 4.97 µM); MIC (Staph. aureus Smith; Staphylococcus aureus): 6.25 µg/mL (≈ 9.96 µM); MIC [7]: 3.12 µg/mL (≈ 4.97 µM)
COc1cccc2c1C(=O)c1c(O)c3c(c(O)c1C2=O)C[C@@](O)(C(C)=O)C[C@@H]3O[C@H]1C[C@H](N)[C@H](OC2CCCCO2)[C@H](C)O1 (single isomer, unassigned; isomer a) [4'-O-PDa, 4'-O-tetrahydropyranyl daunomycin (isomer a)]	79.2%	95%	0.28 µg/mL (≈ 0.458 µM)	0.13 µg/mL (≈ 0.213 µM)	90%	96%	115%	122%	> 320%	> 320%	37.3 nmoles/tube	> 100 µg/mL	6.25 µg/mL (≈ 10.2 µM)	> 50 µg/mL	> 100 µg/mL	6.25 µg/mL (≈ 10.2 µM)	0.78 µg/mL (≈ 1.28 µM)	6.25 µg/mL (≈ 10.2 µM)	3.12 µg/mL (≈ 5.1 µM)	0.39 µg/mL (≈ 0.638 µM)	Minimum Inhibitory Concentration (MIC) (Bacillus megaterium APF): 6.25 µg/mL; Minimum Inhibitory Concentration (MIC) (Staph. aureus Smith): 12.5 µg/mL; MIC [7]: 0.78 µg/mL (≈ 1.28 µM)
COc1cccc2c1C(=O)c1c(O)c3c(c(O)c1C2=O)C[C@@](O)(C(=O)COC1CCCCO1)C[C@@H]3O[C@H]1C[C@H](N)[C@H](OC2CCCCO2)[C@H](C)O1 (single isomer, unassigned; isomer b) [4',14-di-O-PAb, 4',14-bis(O-tetrahydropyranyl)adriamycin (isomer b)]	–	–	–	–	115%	96%	103%	103%	109%	161%	15.8 nmoles/tube	–	–	–	–	–	–	–	–	–	Inhibition Rate (growth) (L1210 leukemia cells; 0.1 μg./ml.): 25.5%; Inhibition Rate (growth) (L1210 leukemia cells; 0.5 μg./ml.): 72.1%; 50% Inhibition Concentration of 14C-Thymidine Incorporation (L1210 cells; thymidine): 0.97 µg/mL; 50% Inhibition Concentration of 14C-Uridine Incorporation (L1210 cells; uridine): 0.24 µg/mL
COc1cccc2c1C(=O)c1c(O)c3c(c(O)c1C2=O)C[C@@](O)(C(=O)CO)C[C@@H]3O[C@H]1C[C@H](N)[C@H](OC2CCCCO2)[C@H](C)O1 (single isomer, unassigned; isomer b) [4'-O-PAb, 4'-O-tetrahydropyranyl adriamycin (isomer b)]	–	–	–	–	113%	160%	293%	> 373%	> 360%	> 375%	–	–	–	–	–	–	–	–	–	–	Inhibition Rate (growth) (L1210 leukemia cells; 0.1 μg./ml.): 78.1%; Inhibition Rate (growth) (L1210 leukemia cells; 0.5 μg./ml.): 92.9%; 50% Inhibition Concentration of 14C-Thymidine Incorporation (L1210 cells; thymidine): 0.50 µg/mL; 50% Inhibition Concentration of 14C-Uridine Incorporation (L1210 cells; uridine): 0.24 µg/mL; Minimum Inhibitory Concentration (MIC) (Escherichia coli NIHJ): > 100 µg/mL; Minimum Inhibitory Concentration (MIC) (Bacillus megaterium APF): 3.12 µg/mL; Minimum Inhibitory Concentration (MIC) (Staph. aureus Smith): 6.25 µg/mL; Minimum Inhibitory Concentration (MIC) [2]: 100 µg/mL; Minimum Inhibitory Concentration (MIC) (Candida albicans): > 50 µg/mL; Minimum Inhibitory Concentration (MIC) ([3]; Pseudomonas aeruginosa A3): > 100 µg/mL; Minimum Inhibitory Concentration (MIC) [4]: 6.25 µg/mL; Minimum Inhibitory Concentration (MIC) ([5]; Micrococcus flavus FDA 16): 3.12 µg/mL; Minimum Inhibitory Concentration (MIC) (Staph. aureus FDA 209P): 6.25 µg/mL; Minimum Inhibitory Concentration (MIC) ([6]; Bacillus subtillis NRRLB-558): 3.12 µg/mL; Minimum Inhibitory Concentration (MIC) (Sarcina lutea PCI 1001): 0.78 µg/mL; Minimum Inhibitory Concentration (MIC) [7]: 3.12 µg/mL
COc1cccc2c1C(=O)c1c(O)c3c(c(O)c1C2=O)C[C@@](O)(C(=O)COC1CCCCO1)C[C@@H]3O[C@H]1C[C@H](N)[C@H](O)[C@H](C)O1 (stereo partly drawn) [Example 14-O-PA, 14-O-tetrahydropyranyl adriamycin]	7.6%	58.3%	0.42 µg/mL (≈ 0.669 µM)	0.17 µg/mL (≈ 0.271 µM)	103%	110%	113%	126%	130%	142%	18.4 nmoles/tube	–	–	–	–	–	–	–	–	–	–
